Data reported in US6907280B2, “Method and apparatus for objectively measuring pain, pain treatment and other related techniques” (The General Hospital Corporation, priority 1999, dated 2005).

Legend:
[1] = Heat/capsaicin sensitization model on the face: VAS pain ratings; format: in vivo, human; settings: 11 point VAS 0-10
Experimental: (§1) In one experiment, the following paradigm was used. First allodynia was induced by application of heat in the form of a heat probe as described above to portions of the face of a subject. The heat was applied at a temperature of 44° C. for time period of 5 minutes. Next, a 0.075% capsaicin cream was applied for 20 minutes in the same facial area where the heat probe had been. The capsaicin cream was modified following the method described in “A new human experimental pain model: the heat/capsaicin sensitization model,” Petersen and Rowbotham, Neuroreport. 1999; 10(7):1511-6. Allodynia was produced by the application of normally non-noxious brush and 41 ° C. stimuli to the right (R) and left (L) V2 division of the trigeminal node.
For the 5 minute thermal application, the capsaicin application and the pain induced by normally non-noxious mechanical and thermal stimuli to the right or left V2 region, the subjects rated the intensity of the pain they experienced using a conventional on-line VAS rating scheme (i.e. an 11 point visual analogue scale 0-10; where 0=no pain and 10=maximum pain). The subjects rated the 5 minute thermal application and the capsaicin application on the V2R as approximately 5 and 2.5, respectively, on the VAS rating scale. The application of the brush to the V2R region was rated as a 2.5 on the VAS scale and the brush to the V2L region (i.e. the untreated V2 region) produced no pain. Also, application of the 41° C. probe to the V2R region was rated as approximately 9 on the VAS scale while application of the 41° C. probe to the V2L region was rated as approximately 1 on the VAS scale.

[2] = system: aCG and NAc brain regions; test: fMRI of 41° C. stimulus in subject sensitized to heat by capsaicin (hyperalgesia, Pain 2); format: in vivo, human
Experimental: Referring now to FIG. 8A, an image of an anterior cingulate gyrus (aCG) having an activation 750 in response to a 41° C. thermal stimulus is shown. […] It should be appreciated of course that any thermal mechanical, chemical device can be used to produce pain. […] Referring now to FIG. 8C, an image of aNAc region 760 in response to a 41° C. thermal stimulus is shown. […] The size and color of the activations shown in FIG. 8C indicate the relative activation and statistical significance respectively within each region.

[3] = system: brainstem region spV and thalamus; test: Heat/capsaicin sensitization model on the face: fMRI of spV and thalamus; format: in vivo, human
Experimental: Referring now to FIG. 13, surrogate models of sensitization are explained. Activation in the spV and thalamus following allodynia produced by a heat-capsaicin model in a healthy volunteer are, together, different than in acute pain.
as §1
Curve 1306 represents a zero baseline signal. Curve 1300 is plotted as percent signal change vs. time (seconds).
Referring now to FIG. 13A, a curve 1310 representing the response of the thalamus to a series of brush strokes of an example of pain 2 is shown. Curve 1312 represents a zero baseline signal. The brush strokes are applied during time periods designated 1314a, 1314b.

[4] = system: reward/aversion circuitry (GOb, NAc, SLEA, amygdala, VT); test: Double-blind cocaine vs saline infusion fMRI in cocaine addicts (Table II Cocaine (1)); settings: Outcomes, right hemisphere
[5] = system: reward/aversion circuitry (GOb, NAc); test: Cocaine expectancy fMRI (prior to/shortly after infusion, before pharmacological effects); format: in vivo, human; settings: right hemisphere
Source text: Also, drug expectancy effects can be observed prior to the infusion of cocaine vs. saline. […] These effects result from probability assessments regarding the potential of receiving a drug reward (i.e. a previously experienced reward).

[6] = system: reward/aversion circuitry (GOb, NAc, SLEA, amygdala, VT); test: Unblinded low-dose morphine vs saline infusion fMRI in drug-naive healthy volunteers; format: in vivo, human
Source text: Error bars are included for the MRI data acquired as the 20′ time-point, the 70′ time-point, the 150′ time-point, and the 250′ time-point. Time is represented in seconds using a conversion of repetition time (TR)=6 RR intervals=6 seconds. […] (Table II)

[7] = system: NAc brain region; settings: 4 mg/70 kg, noxious heat 46° C.
Experimental: The saline is administered using conventional intravenous techniques. The thermal stimulus is delivered to a subject using a Peltier based thermode. The size of the activations shown in FIG. 10A indicate the relative extent within each region. The size of the region corresponds to the amount of activation in a volume in the NAc. Thus, a relatively small size corresponds to a relatively low activation volume in the NAc while a relatively large size corresponds to a relatively large activation volume in the NAc.
The thermal pulse 794 is provided having a pulse duration typically of about thirty seconds followed by a resting period 792b having a duration typically of about thirty seconds and during which time a neutral temperature is applied to the subject. […] In one experiment, the first temperature (i.e. the neutral temperature) corresponds to a temperature typically of about 35° C. and the second temperature (i.e. the painful temperature) corresponds to a temperature typically of about 46° C. Thus, pulses 792 and 794 in FIG. 10B vary from a temperature typically of about 35° C. to a temperature typically of about 46° C. […]

[8] = system: VT/PAG brain region; test: fMRI of VT/PAG during intravenous naloxone infusion; format: in vivo, human; settings: naloxone 4 mg/70 kg i.v., infusion period vs preinfusion
Experimental: Referring to FIGS. 10E and 10F, central nervous system (CNS) activity in reward/aversive regions is shown in response to an infusion of naloxone (in a dose of 4 mg/70 kg) in a subject.
Referring now to FIG. 10E, the VT/PAG (combined left and right components in region 820) having an activation 820 in response to an infusion of naloxone in a subject. The size and shade of the region 420a indicates the extent of activation and statistical significance respectively within the region. […] In region 820, a darker shade of gray indicates a less significant activation while a region indicated by a lighter shade of gray indicates a more significant activation.
The period 822a has a duration typically of about five minutes followed by the infusion period 822b having a duration typically of about five minutes.
The response is represented by curve 828 showing preinfusion (white background) and post-infusion (stippled background) time points.
As is known, the VT/PAG is part of the reward/aversion circuitry in the brain and since infusion of naloxone elicits a corresponding decrease (as measured by percentage signal change) in the VT/PAG response, the VT/PAG is said to be negatively valenced with respect to a drug that affects pain function, and analgesic responses to pain.

[9] = Outcomes, Morphine, right hemisphere

## COc1cc(CNC(=O)CCCC/C=C/C(C)C)ccc1O [capsaicin]
[1]; 0.075% capsaicin cream 20 minutes on V2R
  Pain intensity rating of the capsaicin application: ~2.5
[1]; 41° C. probe to V2R after heat/capsaicin
  Pain intensity rating of 41° C. probe on treated region: approximately 9
[1]; brush to V2R after heat/capsaicin
  Pain intensity rating of brush on treated region: 2.5
[2]
  NAc signal change to thermal pulse: negative percentage change
  aCG signal change to thermal pulse: positive percentage change
[3]; 41° C. thermal probe to V2 skin treated with capsaicin
  Ipsilateral spV activation: activation in the ipsilateral spV was observed
[3]; brush induced allodynia, heat-capsaicin model, p<0.01 t-test
  Contralateral thalamus signal change: decrease in signal

## COC(=O)[C@H]1[C@@H](OC(=O)c2ccccc2)C[C@@H]2CC[C@H]1N2C [cocaine]
[4]
  Activation, Amygdala R: (X)
  Activation, SLEA R: (X)
[5]
  Activation, Gob R: X^2

## CN1CC[C@]23c4c5ccc(O)c4O[C@H]2[C@@H](O)C=C[C@H]3[C@H]1C5 [morphine]
[6]; [9]
  Activation, Gob R: (X)
  Activation, NAc R: X^3
  Activation, SLEA R: X^2
[6]; averaged time-course, right and left NAc, morphine vs saline
  Laterality of NAc signal changes: bilateral NAc changes
[6]; drug reward
  Valence of NAc signal: positively valenced signal
[6]; low dose morphine, healthy volunteers
  Activation of reward regions such as the NAc: activation
[6]; very low doses of morphine
  Subjective effect: mild euphoria
[7]
  Analgesic effect determined from NAc activation: attenuates pain

## C=CCN1CC[C@]23c4c5ccc(O)c4O[C@H]2C(=O)CC[C@@]3(O)[C@H]1C5 [naloxone]
[8]
  VT/PAG signal change during infusion: negative percent change
